Data: US11324720B2, “Antiproliferative DNA polymerase inhibitor” (NEW YORK MEDICAL COLLEGE, priority 2018, dated 2022)

What was measured:
[1] = biological target: T1, Pol δ (Homo sapiens, UniProt P28340); test: poly(dA)/oligo(dT) DNA polymerase assay; assay type: biochemical
T1 construct: made in house; host or cells: insect cells (Pol δ); E. coli (PCNA)
Excerpt: In order to validate the predicted inhibitory properties of zelpolib, we used the well-established DNA polymerase assay, poly(dA)/oligo(dT) method^1,16, to quantify the inhibition constants. In this assay, a poly(dA) template (up to 4 kilobases) was randomly primed with oligo(dT) primers (40 mer). In the presence of proliferating cell nuclear antigen (PCNA), Pol δ will initiate the elongation of oligo dT primer with the incorporation of radio-labeled deoxythymidine (^3H). The polymerase activity can then be precisely quantified by counting the isotope incorporated.
A model structure of the catalytic domain of human Pol δ was generated based on the structure of yeast pol δ^72 by SWISSPDB^73. The primary sequences of both proteins are conserved and the active sites structures were virtually identical between the model structure and that of yeast pol δ. […] Subsequently, the 300 compounds with the highest scores were selected and analyzed by Pymol. […]
Three different assays are used to analyze DNA polymerase activities and the impact of zelpolib. The poly(dA)/oligo(dT) assay^1,16 were used for precisely quantification as reported. […] [3H]dTMP incorporation was read on liquid scintillation counter. […]

[2] = system: HEK 293T cells; test: Two plasmid DR-GFP/I-SceI double strand break repair (homologous recombination) assay; assay type: cell-based, human
Excerpt: In addition to being indispensable for the duplication of chromosomes, Pol δ also plays critical roles in various DNA repair pathways^32. It has been shown that Pol δ is the preferred polymerase for the D-loop extension during homologous recombination repair^33. Thus, we investigated the effect of zelpolib on HR efficiency. We used the two plasmid DR-GFP assay developed by Nakanishi et al^34, which is a modified version of the initial method^35. The first plasmid contains a mutant GFP that has lost the ability to fluoresce. The second plasmid contains the coding region of a restriction enzyme, I-SceI. The co-transfection of the two plasmids will result in the expression of I-SceI, which can digest the DR-GFP plasmid at the mutation site leading to the formation of a double strand break. […] Therefore, the percentage of fluorescent cells is the readout of the efficacy of HR. […] The efficacy of HR was analyzed about 40 hours later by flow cytometry.
The efficacy of homologous recombination was analyzed by a two-plasmids system according to published protocol^34,35. […] Cellular fluorescence for GFP was measured by flow cytometry (Beckman coulter, MoFlo XDP). About 32,000 cells were analyzed per sample. […] The experiment was repeated three more times and statistics were calculated using GraphPad prism software.

T1 sequence (P28340 whole entry): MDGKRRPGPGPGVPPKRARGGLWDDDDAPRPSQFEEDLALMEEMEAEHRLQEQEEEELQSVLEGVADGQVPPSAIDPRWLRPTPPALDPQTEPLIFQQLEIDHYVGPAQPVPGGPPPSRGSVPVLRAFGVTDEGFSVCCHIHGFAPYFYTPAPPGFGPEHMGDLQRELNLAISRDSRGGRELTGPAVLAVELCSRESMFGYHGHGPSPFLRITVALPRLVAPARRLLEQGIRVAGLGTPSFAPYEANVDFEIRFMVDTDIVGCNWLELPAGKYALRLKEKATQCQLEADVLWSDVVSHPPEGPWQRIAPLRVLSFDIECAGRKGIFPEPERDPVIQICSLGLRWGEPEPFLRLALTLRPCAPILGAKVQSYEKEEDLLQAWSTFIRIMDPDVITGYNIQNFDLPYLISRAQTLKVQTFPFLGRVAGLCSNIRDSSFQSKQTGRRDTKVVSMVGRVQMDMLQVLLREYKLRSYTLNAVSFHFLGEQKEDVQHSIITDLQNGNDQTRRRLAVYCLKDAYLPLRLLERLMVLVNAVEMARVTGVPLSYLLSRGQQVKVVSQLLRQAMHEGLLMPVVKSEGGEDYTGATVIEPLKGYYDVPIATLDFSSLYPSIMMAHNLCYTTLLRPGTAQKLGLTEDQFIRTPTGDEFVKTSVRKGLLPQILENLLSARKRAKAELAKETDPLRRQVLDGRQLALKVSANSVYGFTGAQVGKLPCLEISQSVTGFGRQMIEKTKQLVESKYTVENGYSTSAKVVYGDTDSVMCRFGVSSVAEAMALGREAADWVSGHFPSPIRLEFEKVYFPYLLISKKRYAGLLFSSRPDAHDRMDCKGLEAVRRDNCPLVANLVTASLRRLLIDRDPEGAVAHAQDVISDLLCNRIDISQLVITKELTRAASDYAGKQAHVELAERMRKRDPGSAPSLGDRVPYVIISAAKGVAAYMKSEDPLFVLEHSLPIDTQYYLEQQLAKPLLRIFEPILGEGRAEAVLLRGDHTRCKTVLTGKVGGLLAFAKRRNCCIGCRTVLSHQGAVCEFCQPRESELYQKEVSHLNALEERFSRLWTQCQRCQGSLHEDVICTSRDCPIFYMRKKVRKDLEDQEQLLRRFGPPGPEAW
T1 sequence (P49005 whole entry partner): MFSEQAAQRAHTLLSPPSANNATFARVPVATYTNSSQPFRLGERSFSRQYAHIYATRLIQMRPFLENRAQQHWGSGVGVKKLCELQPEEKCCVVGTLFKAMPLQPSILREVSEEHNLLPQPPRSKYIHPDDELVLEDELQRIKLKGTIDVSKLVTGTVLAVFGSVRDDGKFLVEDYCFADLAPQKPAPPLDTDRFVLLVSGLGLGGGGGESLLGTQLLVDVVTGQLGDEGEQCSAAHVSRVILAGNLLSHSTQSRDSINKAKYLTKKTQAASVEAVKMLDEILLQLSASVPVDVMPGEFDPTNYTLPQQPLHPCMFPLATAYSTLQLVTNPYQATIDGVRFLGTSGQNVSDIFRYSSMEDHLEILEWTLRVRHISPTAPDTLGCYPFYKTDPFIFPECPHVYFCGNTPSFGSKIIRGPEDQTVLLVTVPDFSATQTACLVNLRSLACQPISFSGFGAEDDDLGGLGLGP
T1 sequence (Q15054 whole entry partner): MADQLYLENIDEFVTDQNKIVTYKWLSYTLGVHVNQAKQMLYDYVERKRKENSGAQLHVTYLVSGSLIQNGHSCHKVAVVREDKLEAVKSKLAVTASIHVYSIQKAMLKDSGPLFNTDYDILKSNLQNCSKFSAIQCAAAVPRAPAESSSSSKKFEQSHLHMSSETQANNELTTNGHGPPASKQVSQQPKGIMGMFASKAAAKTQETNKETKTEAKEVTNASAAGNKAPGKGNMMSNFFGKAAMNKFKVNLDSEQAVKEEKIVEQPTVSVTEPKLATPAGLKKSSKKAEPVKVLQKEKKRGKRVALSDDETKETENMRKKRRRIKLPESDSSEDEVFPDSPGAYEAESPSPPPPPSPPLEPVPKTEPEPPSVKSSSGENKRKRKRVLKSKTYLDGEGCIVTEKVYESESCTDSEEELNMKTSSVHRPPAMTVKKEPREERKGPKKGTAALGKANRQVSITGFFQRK
T1 sequence (P12004 whole entry partner): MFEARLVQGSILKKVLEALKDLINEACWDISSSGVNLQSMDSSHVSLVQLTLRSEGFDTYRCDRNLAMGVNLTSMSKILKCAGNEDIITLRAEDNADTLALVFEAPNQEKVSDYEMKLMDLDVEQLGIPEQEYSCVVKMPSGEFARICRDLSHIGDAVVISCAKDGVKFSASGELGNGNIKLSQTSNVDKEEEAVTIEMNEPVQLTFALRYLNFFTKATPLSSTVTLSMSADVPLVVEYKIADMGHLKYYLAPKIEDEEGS

COC(=O)c1cc(-c2ccccc2)sc1NC(=S)NNC(=O)CCc1ccc(O)c(O)c1 [zelpolib]
inhibition of Pol δ activity at 10 μM ([1]; assayed at 10 μM): significant inhibition
Ki ([1]; non-competitive against dTTP, with PCNA, R^2=0.99, read-out: inhibition constant Ki of Pol δ activity): 4.3 µM
reduction in HR efficacy ([2]; 20 μM zelpolib): comparable to those induced by siRNA knockdown of BRCA1 or BRCA2 individually
inhibition of homologous recombination (percentage of GFP fluorescent cells) ([2]; two concentrations, about 40 hours): dose-dependent inhibition of HR
